The test system of one data set is Hepatitis C virus. As to the kind of experiment: Antiviral activity against HCV by replicon assay. Format: functional, organism-based, Hepacivirus hominis. Background: In antiviral work, replicon cells carry a viral genome segment that copies itself.
Data set [1] in a line: Stability in human simulated gastric fluid. Format: ADME, Stomach. The following applies: simulated gi fluid.
A short description of data set [2]: Stability in human simulated intestinal fluid at 1 mg/mL after 60 mins. Format: ADME. The following applies: read-out: Stability.
A further data set relates to Plasma. As to the kind of experiment: Stability in human plasma. Format: ADME, cell-free.
Data set [3] can be described thus: Stability in human simulated intestinal fluid at 1 mg/mL after 30 mins. The data set is classed as ADME. To be noted: read-out: Stability.
Data set [4] can be described thus: Stability in human simulated intestinal fluid at 1 mg/mL after 2 hrs. The data set is classed as ADME. To be noted: simulated gi fluid.

On to `COC(=O)C(C)NP(=O)(OC[C@H]1O[C@@H](n2cnc3c(N(C)NS(C)(=O)=O)nc(N)nc32)[C@](C)(O)[C@@H]1O)Oc1ccccc1` (stereo not given in full), for which it took 1200 nM to reach a half-maximal effect with Hepatitis C virus (EC50).
On the same count and under the same terms, then `COC(=O)C(C)NP(=O)(OC[C@H]1O[C@@H](n2cnc3c(N(C)NS(C)(=O)=O)nc(N)nc32)[C@](C)(O)[C@@H]1O)Oc1ccc(Cl)cc1` (stereo not given in full), with 800 nM.
Take `CC(NP(=O)(OC[C@H]1O[C@@H](n2cnc3c(N(C)NS(C)(=O)=O)nc(N)nc32)[C@](C)(O)[C@@H]1O)Oc1ccccc1)C(=O)OCc1ccccc1` (stereo not given in full): the Stability entry (in data set [1]; with Plasma) was “Stable” in each case. The EC50 (as a rule, the concentration giving half of the maximal effect) in the data set on Hepatitis C virus was 2200 nM. For the same molecule, the remaining at 1 h, 1 mg/mL in data set [2] was 0%. The remaining at 0.5 h, 1 mg/mL in data set [3] was 0%.
`CN(NS(C)(=O)=O)c1ncnc2c1ncn2[C@@H]1O[C@H](COP(=O)(OCCSC(=O)C(C)(C)C)OCCSC(=O)C(C)(C)C)[C@@H](O)[C@@]1(C)O`: the EC50 in the data set with Hepatitis C virus was determined as 60 nM. In other words, the double-digit nanomolar range.
On the same count and under the same terms, with `CN(NS(C)(=O)=O)c1nc(N)nc2c1ncn2[C@@H]1O[C@H](CO)[C@@H](O)[C@@]1(C)O` the figure was 92000 nM.
Same read-out and setting: then `CN(NS(C)(=O)=O)c1ncnc2c1ncn2[C@@H]1O[C@H](CO)[C@@H](O)[C@@]1(C)O`, with 300000 nM; and `COC(=O)C(C)NP(=O)(OC[C@H]1O[C@@H](n2cnc3c(N(C)NS(C)(=O)=O)ncnc32)[C@](C)(O)[C@@H]1O)Oc1ccc(Cl)cc1` (stereo not given in full), with 2600 nM.
For the molecule `COC(=O)CNP(=O)(OC[C@H]1O[C@@H](n2cnc3c(N(C)NS(C)(=O)=O)nc(N)nc32)[C@](C)(O)[C@@H]1O)Oc1ccccc1` (stereo not given in full), the Stability entry (in data set [1]; in the data set on Plasma) was “Stable” each time. In the data set with Hepatitis C virus, this molecule registered an EC50 of 22000 nM. Moreover, the remaining at 1 h, 1 mg/mL in data set [2] was 0%. For the same molecule, the remaining at 0.5 h, 1 mg/mL in data set [3] is 0%.
For the molecule `COC(=O)CNP(=O)(OC[C@H]1O[C@@H](n2cnc3c(N(C)NS(C)(=O)=O)nc(N)nc32)[C@](C)(O)[C@@H]1O)Oc1ccc(Cl)cc1` (stereo not given in full), the Stability result (in data set [1]; with Plasma) was “Stable” each time. For the same molecule, the EC50 with Hepatitis C virus worked out at 8900 nM. Besides, in data set [2], the remaining at 1 h, 1 mg/mL was 0%. Further, the remaining at 0.5 h, 1 mg/mL in data set [3] is 0%.
Regarding `CC(NP(=O)(OC[C@H]1O[C@@H](n2cnc3c(N(C)NS(C)(=O)=O)ncnc32)[C@](C)(O)[C@@H]1O)Oc1ccccc1)C(=O)OCc1ccccc1` (stereo not given in full), the Stability result (in data set [1]; in the data set on Plasma) was “Stable” throughout. Besides, the EC50 in the data set on Hepatitis C virus is 2900 nM. Also, the remaining at 1 h, 1 mg/mL in data set [2] is 0%. Moreover, the remaining at 0.5 h, 1 mg/mL in data set [3] was 0%.
Consider `CC(NP(=O)(OC[C@H]1O[C@@H](n2cnc3c(N(C)NS(C)(=O)=O)nc(N)nc32)[C@](C)(O)[C@@H]1O)Oc1ccc(Cl)cc1)C(=O)OCc1ccccc1` (stereo not given in full), for which the Stability result (in data set [1]; in the data set with Plasma) was “Stable” each time. In the data set with Hepatitis C virus, this molecule yielded an EC50 of 110 nM. For the same molecule, in data set [2], the remaining at 1 h, 1 mg/mL is 0%. The remaining at 0.5 h, 1 mg/mL in data set [3] is 0%.
With `CC(C)OC(=O)C(C)NP(=O)(OC[C@H]1O[C@@H](n2cnc3c(N(C)NS(C)(=O)=O)ncnc32)[C@](C)(O)[C@@H]1O)Oc1ccc(Cl)cc1` (stereo not given in full), the Stability entry (in data set [1]; in the data set on Plasma) was “Stable” throughout. This molecule registered an EC50 with Hepatitis C virus of 2500 nM. The remaining at 1 h, 1 mg/mL in data set [2] is 48%. Besides, the remaining at 0.5 h, 1 mg/mL in data set [3] is 67%.
On to `COC(=O)CNP(=O)(OC[C@H]1O[C@@H](n2cnc3c(N(C)NS(C)(=O)=O)ncnc32)[C@](C)(O)[C@@H]1O)Oc1ccccc1` (stereo not given in full), for which the Stability result (in data set [1]; in the data set on Plasma) was “Stable” each time. Further, the response in the data set on Hepatitis C virus was half-maximal at 220000 nM (EC50). In data set [2], the remaining at 1 h, 1 mg/mL was 0%. In addition, the remaining at 0.5 h, 1 mg/mL in data set [3] is 0%.
On to `CC(NP(=O)(OC[C@H]1O[C@@H](n2cnc3c(N(C)NS(C)(=O)=O)ncnc32)[C@](C)(O)[C@@H]1O)Oc1ccc(Cl)cc1)C(=O)OCc1ccccc1` (stereo not given in full), for which the Stability entry (in data set [1]; in the data set on Plasma) was “Stable” throughout. In the data set on Hepatitis C virus, this molecule yielded an EC50 of 680 nM. The remaining at 1 h, 1 mg/mL in data set [2] is 0%. Moreover, in data set [3], the remaining at 0.5 h, 1 mg/mL is 0%.
With `CC(C)OC(=O)C(C)NP(=O)(OC[C@H]1O[C@@H](n2cnc3c(N(C)NS(C)(=O)=O)nc(N)nc32)[C@](C)(O)[C@@H]1O)Oc1ccc(Cl)cc1` (stereo not given in full), the Stability result (in data set [1]; with Plasma) was “Stable” in each case. The same molecule registered an EC50 in the data set on Hepatitis C virus of 270 nM. For the same molecule, the remaining at 1 h, 1 mg/mL in data set [2] is 37%. Also, in data set [3], the remaining at 0.5 h, 1 mg/mL was 61%.
Take `COC(=O)C(C)(C)NP(=O)(OC[C@H]1O[C@@H](n2cnc3c(N(C)NS(C)(=O)=O)ncnc32)[C@](C)(O)[C@@H]1O)Oc1ccc(Cl)cc1` (stereo not given in full): the Stability result (in data set [4]; in data set [1]; in the data set on Plasma) was “Stable” throughout. This molecule also came in with an EC50 with Hepatitis C virus of 1400 nM. For the same molecule, in data set [2], the remaining at 1 h, 1 mg/mL was 100%. The remaining at 0.5 h, 1 mg/mL in data set [3] is 100%.
Consider `COC(=O)C(C)(C)NP(=O)(OC[C@H]1O[C@@H](n2cnc3c(N(C)NS(C)(=O)=O)nc(N)nc32)[C@](C)(O)[C@@H]1O)Oc1ccc(Cl)cc1` (stereo not given in full), for which the Stability entry (in data set [4]; in data set [1]; with Plasma) was “Stable” each time. In the data set with Hepatitis C virus, this molecule showed an EC50 of 260 nM. Besides, in data set [2], the remaining at 1 h, 1 mg/mL is 100%. For the same molecule, the remaining at 0.5 h, 1 mg/mL in data set [3] is 100%.
Regarding `COC(=O)C(C)NP(=O)(OC[C@H]1O[C@@H](n2cnc3c(N(C)NS(C)(=O)=O)ncnc32)[C@](C)(O)[C@@H]1O)Oc1ccccc1` (stereo not given in full), the EC50 in the data set with Hepatitis C virus came to 26000 nM.
`CN(NS(C)(=O)=O)c1nc(N)nc2c1ncn2[C@@H]1O[C@H](COP(=O)(OCCSC(=O)C(C)(C)C)OCCSC(=O)C(C)(C)C)[C@@H](O)[C@@]1(C)O`: the response in the data set on Hepatitis C virus was half-maximal at 24 nM (EC50).
With `COC(=O)CNP(=O)(OC[C@H]1O[C@@H](n2cnc3c(N(C)NS(C)(=O)=O)ncnc32)[C@](C)(O)[C@@H]1O)Oc1ccc(Cl)cc1` (stereo not given in full), the Stability result (in data set [1]; with Plasma) was “Stable” in each case. Further, the EC50 with Hepatitis C virus was 39000 nM. The remaining at 1 h, 1 mg/mL in data set [2] was 0%. In addition, in data set [3], the remaining at 0.5 h, 1 mg/mL is 0%.
